Measurements taken from patent US20210095293A1, “METHODS OF TREATING CANCERS WITH GPR132 INHIBITORS” (The Board of Regents of the University of Texas System, priority 2016, published 2021).
Structures can show the parent of a compound that is named as a salt.

Experiments:
Assay type in all cases: cell-based, mouse
[1] = test system: bone marrow derived macrophages (BMDMs); experiment: macrophage M2-like morphology (elongation); conditions: cancer cells treated with oxamic acid 90 mM for 3 days before CM harvest
Source text: FIGS. 9A-9D. Tumor-derived factors activate M2-like macrophages via Gpr132. (FIG. 9A) The pH values of conditioned media (CM) from cancer cells or macrophages (n=5-8); *p<0.05, ****p<0.001 compared with RAW 264.7 macrophage CM. (FIG. 9B) Western blot for CD206 and Gpr132 in RAW 264.7 macrophages after treatment with indicated cancer cell CM for 24 hrs. Actin was used as a loading control. The CD206/actin or Gpr132/actin ratio was quantified and shown as fold changes compared to control (n=3); *p<0.05, ***p<0.005 compared with control. (FIG. 9C) Flow cytometry analysis of Gpr132 and CD206 in BMDMs with or without EO771 CM treatment. The experiments were repeated twice and the representative results are shown. (FIG. 9D) Immunofluorescence staining for CD11b in WT and Gpr132-KO BMDMs after differentiation in the absence or presence of 30% EO771 CM or 4T1.2 CM for 7 days. Elongated macrophage morphology indicates a M2-like phenotype. Nuclei were stained with DAPI. Scale bar, 25 μm. WT, wild-type; Gpr132-KO, Gpr132 knockout.
FIGS. 10A-10F. […] LC-MS was used to quantify lactate in the eluent of Gpr132 co-IP. (Left) Representative LC-MS chromatograms; (Right) Quantification of relative lactate binding (n=3). ****p<0.001 compared with WT. […] CD206/actin ratio was quantified and shown as fold changes compared to control (n=3-4); *p<0.05 compared with WT control. […]

[2] = test system: breast cancer cells (EO771, 4T1.2); experiment: Boyden chamber assay, cancer cell invasion (matrigel); conditions: oxamic acid 90 mM pre-treatment; WT macrophages
Procedure: (§1) FIGS. 11A-11C. Lactate-activated macrophage promotes cancer cell adhesion, migration and invasion via Gpr132. (FIG. 11A) Adherence assays. 4T1.2 cells were suspended in fibronectin ([…]) pre-coated plates with CM from spleen-derived macrophages (mf) that were treated with 4T1.2 CM or lactate (5 mM) with or without Gpr132 antibody (6 mg/ml) or normal IgG (6 mg/ml) for 10 min. The adhered cells were stained with crystal violet, dissolved in 1% Triton X-100 and measured by OD590. (FIGS. 11B-11C) Boyden chamber assay of cancer cell migration and invasion. 4T1.2 cells (B) or EO771 cells (FIG. 11C) were plated on the upper chamber inserts, with untreated (Control), 4T1.2 CM-activated or lactate-activated spleen-derived WT or Gpr132-KO macrophages plated in the lower chambers. For invasion assay, the inserts were pre-coated with 60 μl matrigel. After migration for 6 hrs (FIG. 11B) or invasion for 24 hrs (FIG. 11C), the migrated or invaded cells were stained with crystal violet and counted as cells per field of view under microscope (n=3-4); For (FIG. 11C), the first bar of each data set of the bar graphs represents the control mf, and the second bar represents Gpr132KO; *p<0.05; **p<0.01; ***p<0.005; ****p<0.001. Scale bar, 500 μm.
(§2) FIGS. 23A-23B. Cancer cell-derived lactate activates macrophages to promote cancer cell migration and invasion via Gpr132. (FIGS. 23A-23B) Boyden chamber assay. EO771 or 4T1.2 cells were cultured in the presence or absence of oxamic acid (90 mM) for 3 days. CM was harvested after the cells were cultured for another 24 hrs without oxamic acid. […] After migration for 6 hrs (FIG. 23A) or invasion for 24 hrs (FIG. 23B), the migrated or invaded cells were stained with crystal violet and counted as cells per field of view under microscope (n=3-4); for (FIG. 23A), the bars in each data set of the bar graph represent, from left to right, control, EO771, Oxamic acid, and Oxamic acid+Lactate; for (FIG. 23B), the bars in each data set of the bar graph represent, from left to right, control, 4T1.2CM, Oxamic acid, and Oxamic acid+Lactate; *p<0.05; ****p<0.001. […]

EO771 and 4T1.2 cells = experiment: lactate and pH in cancer cell conditioned media; conditions: oxamic acid 90 mM for 3 days, CM after another 24 hrs
Procedure: FIGS. 18A-18E. Lactate secreted by EO771 and 4T1.2 cells is responsible for the low pH in their CM. (FIG. 18A) Lactate levels in the conditional media (CM) from various cancer cells (n=3); *p<0.05, ****p<0.001 compared with EO771 CM; #### p<0.001 compared with 4T1.2 CM. (FIG. 18B) Lactate levels in EO771 CM at the indicated time point of culture (n=3). (FIG. 18C) Lactate levels in the whole CM, <3 kDa and >3 kDa fractions of CM from 24 h EO771 cell cultures (n=3). (FIGS. 18D-18E) EO771 and 4T1.2 cells were treated with or without oxamic acid (90 mM) for 3 days. CM was harvested after the cells were cultured for another 24 hrs without oxamic acid before lactate (FIG. 18D) and pH (FIG. 18E) quantification (n=3). **p<0.01, ***p<0.005, ****p<0.001.
RAW264.7, EO771, 4T1.2, PY8119, PY230, SCP-4, SCP-6, SCP-28, MDA-1883, MDA-2287 and B16F10 cell lines were cultured in culture media containing 10% FBS (Sigma) and 1:100 antibiotic-antimycotic (Gibco). Conditioned media were obtained from serum-free media after culturing cells for 24 hrs or as indicated. Bone marrow-derived macrophages (BMDMs) and spleen-derived macrophages from WT and Gpr132-KO mice were cultured as previously described. Lactate in the conditioned media was quantified using a Vitros 250 chemistry analyzer at the UT Southwestern Metabolic Phenotyping Core.

[3] = test system: breast cancer cells (4T1.2, EO771); experiment: Boyden chamber assay, cancer cell migration; conditions: oxamic acid 90 mM pre-treatment; WT macrophages
Procedure: as §1
as §2, with “acid. As a rescue, CM of oxamic acid-treated EO771 or 4T1.2 cells was supplemented with exogenous lactate.” for “acid.”
Migration or invasion of breast cancer cells was examined using 24-well Boyden chambers (Corning, Corning, N.Y.) with transwell inserts of […] pore size, coated without (for migration) or with matrigel (for invasion) as previously reported. […] The migrated or invaded cells were fixed with methanol and stained with crystal violet (0.05%, sigma), and then counted as cells per field of view under microscope or measured as OD570 after crystal violet was dissolved.

Gpr132 = experiment: calcium mobilization assay in BMDMs; conditions: WT or Gpr132-KO BMDMs stimulated with 25 mM
Procedure: FIG. 27. […] WT or Gpr132-KO BMDMs were stimulated with 25 mM lactate (Left) or HCl (Right) (n=3).
To determine whether Gpr132 is required for lactate signaling in macrophages, a calcium mobilization assay was performed. […] First, lactate levels in the CM of distinct cancer cell lines were measured using a Vitros 250 chemistry analyzer. […] Second, the effects of blocking lactate production from EO771 and 4T1.2 cells by oxamic acid, an inhibitor of lactate dehydrogenase was tested.

macrophages = experiment: M2 marker expression in macrophages (Western blot, RT-qPCR, flow cytometry); conditions: IL-4 10 ng/ml for 16 hrs, spleen macrophages
Procedure: After blocking with 10% BSA for 10 min, cells were incubated with anti-CD206 (Rabbit polyclonal, Abcam) or anti-Gpr132 (Rabbit polyclonal, Sigma) antibodies (1:100) for 30 min at 4° C., washed with cold PBS, and then incubated with FITC-conjugated secondary antibodies (1:100) for 30 min at 4° C. After washing twice using cold PBS, cells were analyzed by flow cytometer (Becton Dickinson). RNA was isolated from cells or mouse tissues using Trizol (Invitrogen) following the manufacturer's instructions. RNA (200-500 ng) was first treated with RNase-free DNase I using the DNA-free kit (Ambion) to remove all genomic DNA, and then reverse-transcribed into cDNA using an ABI High Capacity cDNA RT Kit (Invitrogen). The cDNA was analyzed using real-time quantitative PCR (SYBR Green, Invitrogen) with an Applied Biosystems 7900 Sequence Detection System. Each reaction was performed in triplicate in a 384-well format. The expression of each gene was normalized by that of mouse ribosomal protein L19. Samples of 20 μg protein were applied to SDS polyacrylamide gels. After protein transfer, membranes were incubated with antibodies for […] (rabbit polyclonal, Santa Cruz Biotechnology), CD206, Gpr132, or β-actin (mouse monoclonal, Sigma) (1:1000) overnight at 4° C. Membranes were washed, and then incubated with HRP-conjugated secondary antibodies (1:1000) for 1 hr at room temperature before signal detection by chemiluminescence (Pierce). Densitometric quantification was performed by Image-Pro Plus 6.0 software (Media Cybernetics). PathScan Akt Signaling Antibody Array (Cell Signaling) was incubated with macrophage proteins and analyzed following kit instructions.

NC(=O)C(=O)O [oxamic acid]
ability of EO771 or 4T1.2 CM to induce M2-like morphology in WT BMDMs [1]: completely abolished | effects of CM-activated WT macrophages on cancer cell invasion after pre-treatment of cancer cells [2]: abolished | lactate in the CM (EO771 and 4T1.2 cells): depleted | effects of CM-activated WT macrophages on cancer cell migration after pre-treatment of cancer cells [3]: abolished

Cl [hydrochloric acid (HCl), hydrochloric acid]
effect of Gpr132 deletion on triggered calcium mobilization (Gpr132): not

B1: IL-4: standard T helper 2 cytokine used to trigger macrophage M2 activation (protein, UniProt P05112 25-153, looked up)
Interleukin-4: HKCDITLQEIIKTLNSLTEQKTLCTELTVTDIFAASKNTTEKETFCRAATVLRQFYSHHEKDTRCLGATAQQFHRHKQLIRFLKRLDRNLWGLAGLNSCPVKEANQSTLENFLERLKTIMREKYSKCSS
induction of M2 markers (Arg-1, CCL17, CCL22, PPAR-γ, YM-1, YM-2), WT vs Gpr132-KO macrophages (macrophages): equally well
